tested on: NCI-H295R; assay: IC50 (antiproliferative, ATP content); details: 48 h
Outline: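 Serum-free ITS-supplemented DMEM was used to seed 1500 adrenocortical carcinoma cells per well in 1536-well plates, which were cultured overnight. Eight final concentrations of each library compound, from 0.6 nM to 46 µM, were added by pin transfer, followed by 48 h at 37 °C in 5% CO2 and a CellTiter-Glo ATP read after 20 min at room temperature. Luminescence was set against vehicle and positive-control wells, and the IC50 was obtained by logistic curve fitting. Any compound with no concentration response was entered as above the top dose.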

Row | SMILES | IC50
1 | O=C(/C=C/c1cccc(F)c1)NC1CC1 | > 46 µM
2 | C[N+]1(C)[C@@H]2CC[C@H]1C[C@H](OC(=O)c1c[nH]c3ccccc13)C2.[I-] | > 46 µM
3 | C/C(=C(\CCOC(=O)C(C)C)SS/C(CCOC(=O)C(C)C)=C(/C)N(C=O)Cc1cnc(C)nc1N)N(C=O)Cc1cnc(C)nc1N | > 46 µM
4 | CCC(=O)NCC[C@@H]1CCc2ccc3c(c21)CCO3 | > 46 µM
5 | COCCCOc1ccnc(CS(=O)c2nc3ccccc3[n-]2)c1C.[Na+] (stereo not given) | > 46 µM
6 | Cc1c(NC(=O)c2cccnc2)c(=O)n(-c2ccccc2)n1C | > 46 µM
7 | O=C1O[C@@H]3CCN2C\C=C(\COC(=O)[C@](C)(O)[C@](C)(O)[C@H]1C)[C@@H]23 | > 46 µM
8 | COc1c(O)cc2c(c1O)[C@@H]1O[C@H](CO)[C@@H](O)[C@H](O)[C@H]1OC2=O.O | > 46 µM
9 | O=c1[nH]cnc2c1ncn2[C@H]1CC[C@@H](CO)O1 | > 46 µM
10 | Cc1ccccc1OCC(O)CO (stereo not given) | > 46 µM
11 | O=C(CSC#N)O[C@H]2[C@]1(C)CC[C@H](C2)[C@](C)1C | > 46 µM
12 | O=C1CCC(N2C(=O)c3ccccc3C2=O)C(=O)N1 (stereo not given) | > 46 µM
13 | COc1cc(N)c(Cl)cc1C(=O)NC1CN2CCC1CC2.Cl (stereo not given) | > 46 µM
14 | Clc1cccc(SC2CCNCC2)n1 | > 46 µM
15 | O=C(Nc1ccc([N+](=O)[O-])cc1)Nc1ccc([N+](=O)[O-])cc1 | > 46 µM
16 | CCC1(c2cccc(O)c2)CCCCN(C)C1.Cl (stereo not given) | > 46 µM
17 | CCN(CC)CCC(=O)N1c2ccccc2Sc2ccc(C(F)(F)F)cc21 | > 46 µM
18 | O=C(O)COc1ccc(C(=O)c2cccs2)c(Cl)c1Cl | > 46 µM
19 | O[C@H]1[C@H]2[C@H](O)CCCN2C[C@H]1O | > 46 µM
20 | CCN1CCN(C(=O)N[C@@H](C(=O)N[C@@H]2C(=O)N3C(C(=O)[O-])=C(CSc4nnnn4C)CS[C@H]23)c2ccc(O)cc2)C(=O)C1=O.[Na+] | > 46 µM
21 | O=P([O-])(O)C(O)(Cc1cccnc1)P(=O)([O-])O.[Na+].[Na+] | > 46 µM
22 | O=[C@](N[C@H]2C[C@@H]2[C@]3=CC=CC=C3)[C@H]1NC(CC1)=O | > 46 µM
23 | O=[C@@](N[C@@H]([C@@](O)=O)CC2=CC=CC=C2)[C@@H]1CC[C@@H]([C@H](C)C)CC1 | > 46 µM
24 | ClC1=CC=C(\C3=C2/CCNCC2)C(CCC4=C3N=CC=C4)=C1 | > 46 µM

Row | SMILES | IC50
25 | C[N+](C)(C)CCOC(=O)C(O)(c1ccccc1)c1ccccc1.[I-] | > 46 µM
26 | C=CCN1CC[C@]23c4c5ccc(O)c4O[C@H]2C(=O)CC[C@@]3(O)[C@H]1C5 | > 46 µM
27 | C[C@H]1CC[C@]2(NC1)O[C@H]1C[C@H]3[C@@H]4CC[C@H]5C[C@@H](O)CC[C@]5(C)[C@H]4CC[C@]3(C)[C@H]1[C@@H]2C.Cl | > 46 µM
28 | Cc1ccc(C(C)(C)c2ccc(C)cc2)cc1 | > 46 µM
29 | O=[N+]([O-])c1ccccc1 | > 46 µM
30 | Cc1ncc(C[n+]2csc(CCO)c2C)c(N)n1.Cl.[Cl-] | > 46 µM
31 | O[C@](CN2N=CN=C2)([C@H]([C@@]3=C(F)C=NC=N3)C)C1=CC=C(F)C=C1F | > 46 µM
32 | Cn1c(=O)c2c(ncn2CCO)n(C)c1=O | > 46 µM
33 | Cl.NC1=NCC2c3ccccc3Cc3ccccc3N12 (stereo not given) | > 46 µM
34 | CCCOC(=O)c1ccccc1O | > 46 µM
35 | O=S(=O)(O)O.[2H]C([2H])([2H])[C@H](N)Cc1ccccc1.[2H]C([2H])([2H])[C@H](N)Cc1ccccc1 | > 46 µM
36 | CCCCCCc1ccc(O)cc1O | > 46 µM
37 | O=C1CN=C(c2ccccc2)c2cc([N+](=O)[O-])ccc2N1 | > 46 µM
38 | CO[C@H]1C[C@@H]2CC[C@@H](C)[C@@](O)(O2)C(=O)C(=O)N2CCCC[C@H]2C(=O)O[C@H]([C@H](C)C[C@@H]2CC[C@@H](OC(=O)C(C)(CO)CO)[C@H](OC)C2)CC(=O)[C@H](C)/C=C(\C)[C@@H](O)[C@@H](OC)C(=O)[C@H](C)C[C@H](C)/C=C/C=C/C=C/1C | > 46 µM
39 | NS(=O)(=O)c1cc2c(cc1Cl)N=C(CSCc1ccccc1)NS2(=O)=O | > 46 µM
40 | Clc1cccc(Cl)c1N=C1NCCN1 | > 46 µM
41 | CC(=O)OCC(=O)NCCCOc1cccc(CN2CCCCC2)c1.Cl | > 46 µM
42 | O[C@@H]([C@H](C)NC)[C@@]1=CC=CC=C1.Cl | > 46 µM
43 | F[C@]2([C@](C)3CC4)[C@@H](O)C[C@]1(C)[C@@](OC(C)=O)([C@@](C)=O)CC[C@]([H])1[C@@]([H])2CCC3=CC4=O | > 46 µM
44 | CN(C/C=C/c1ccccc1)Cc1cccc2ccccc12.Cl | > 46 µM
45 | CCCCCCCCCCCCCCCCCCOCC(O)CO (stereo not given) | > 46 µM
46 | NS(=O)(=O)c1cc2c(cc1Cl)NC(C1CC3C=CC1C3)NS2(=O)=O (stereo not given) | > 46 µM
47 | O=C(O)CCCCCCCC(=O)O | > 46 µM
48 | CN(C)[C@@H]1C(O)=C(C(N)=O)C(=O)[C@@]2(O)C(O)=C3C(=O)c4c(O)ccc(Cl)c4[C@@H](O)[C@H]3C[C@@H]12.Cl | > 46 µM

Row | SMILES | IC50
49 | O=c1[nH]c(=O)n([C@H]2C[C@H](O)[C@@H](CO)O2)cc1C(F)(F)F | > 46 µM
50 | COc1c(N2C[C@@H]3CCCN[C@@H]3C2)c(F)cc2c(=O)c(C(=O)O)cn(C3CC3)c12.Cl | > 46 µM
51 | CC(N)C12CC3CC(CC(C3)C1)C2.Cl (stereo not given) | > 46 µM
52 | CN(C)N=Nc1nc[nH]c1C(N)=O | > 46 µM
53 | NC(=O)Oc1ccc(Cc2ccccc2)cc1 | > 46 µM
54 | Cc1cc(NS(=O)(=O)c2ccc(N)cc2)nc(C)n1 | > 46 µM
55 | Cc1cc(CC(=O)[O-])n(C)c1C(=O)c1ccc(Cl)cc1.[Na+] | > 46 µM
56 | O=C1O[C@H](CO)[C@@H](O)[C@H](O)[C@H]1O | > 46 µM
57 | COc1ccc([C@@H]2Sc3ccccc3N(CCN(C)C)C(=O)[C@@H]2OC(C)=O)cc1 | > 46 µM
58 | CCCCCCCCCCCC(=O)OCC(O)CO (stereo not given) | > 46 µM
59 | CN1CCN(c2c(F)cc3c(=O)c(C(=O)O)cn(CCF)c3c2F)CC1 | > 46 µM
60 | COc1cnc(NS(=O)(=O)c2ccc(N)cc2)nc1 | > 46 µM
61 | Cc1oncc1C(=O)Nc1ccc(C(F)(F)F)cc1 | > 46 µM
62 | O=c1[nH]c(=O)n([C@H]2C[C@H](O)[C@@H](CO)O2)cc1/C=C/Br | > 46 µM
63 | O=C(OCc1ccccc1)c1cccnc1 | > 46 µM
64 | O=C1N(c2ccccc2)c2ccccc2C1(Cc1ccncc1)Cc1ccncc1 | > 46 µM
65 | CCCCCCCCCCCCCCCCN | > 46 µM
66 | O=c1ccn(C2OC(COP(=O)(O)OC3C(CO)OC(n4ccc(=O)[nH]c4=O)C3O)C(O)C2O)c(=O)[nH]1 (stereo not given) | > 46 µM
67 | CC[C@H]1OC(=O)C[C@@H](O)[C@H](C)[C@@H](O[C@@H]2O[C@H](C)[C@@H](O[C@H]3C[C@@](C)(O)[C@@H](O)[C@H](C)O3)[C@H](N(C)C)[C@H]2O)[C@@H](CC=O)C[C@@H](C)C(=O)/C=C/C(C)=C/[C@@H]1CO[C@@H]1O[C@H](C)[C@@H](O)[C@@H](OC)[C@H]1OC.O=C(O)[C@H](O)[C@@H](O)C(=O)O | > 46 µM
68 | Clc1ccc(C2(Cn3cncn3)OCCO2)c(Cl)c1 | > 46 µM
69 | [C@]23([C@](OC(c1occc1)=O)([C@H](C)C[C@H]2[C@H]5[C@]([C@H](C3)O)([C@@]\4(\C(=C/C(/C=C/4)=O)CC5)C)Cl)C(=O)CCl)C | > 46 µM
70 | COc1cc(NS(=O)(=O)c2ccc(N)cc2)nc(OC)n1 | > 46 µM
71 | CCOC(=O)NC(O)C(Cl)(Cl)Cl (stereo not given) | > 46 µM
72 | O=C(O)CN(CC(=O)O)Cc1cc2c(cc1O)Oc1ccc(CN(CC(=O)O)CC(=O)O)c(O)c1C21OC(=O)c2ccccc21 (stereo not given) | > 46 µM

Row | SMILES | IC50
73 | CC(C)NC[C@@H](O)COc1ccc(CC(N)=O)cc1 | > 46 µM
74 | C[C@H](CCC(=O)O)[C@H]1CC[C@H]2[C@@H]3[C@H](O)C[C@@H]4C[C@H](O)CC[C@]4(C)[C@H]3CC[C@]12C | > 46 µM
75 | O=C(NCCN1CCOCC1)c1ccc(Cl)cc1 | > 46 µM
76 | O=C(O)c1nn(Cc2ccc(Cl)cc2Cl)c2ccccc12 | > 46 µM
77 | Cc1ccc(/N=C/N(C)/C=N/c2ccc(C)cc2C)c(C)c1 | > 46 µM
78 | O=C1c2ccccc2S(=O)(=O)N1CCCCN1CCN(c2ncccn2)CC1 | > 46 µM
79 | CCC1(C2=NCCN2)Cc2ccccc2O1 (stereo not given) | > 46 µM
80 | COc1cc(S(C)=O)ccc1-c1nc2ncccc2[nH]1 (stereo not given) | > 46 µM
81 | O=S(=O)(O)c1cc(I)c(O)c2ncccc12 | > 46 µM
82 | Cl[C@]1([C@](C)2C=C3)[C@@H](O)C[C@@]([C@]([C@@](CO)=O)(O)[C@H]4C)(C)[C@](C4)([H])[C@@]([H])1CCC2=CC3=O | > 46 µM
83 | CC(=O)NO | > 46 µM
84 | C[C@]12CCC(=O)C[C@@H]1CC[C@@H]1[C@@H]2CC[C@]2(C)[C@@H](O)CC[C@@H]12 | > 46 µM
85 | CCN(CC)C(=O)N1CCN(C)CC1.O=C(O)CC(O)(CC(=O)O)C(=O)O | > 46 µM
86 | C[Se]CC[C@H](N)C(=O)O | > 46 µM
87 | CC(O)[C@H]1CC[C@H]2[C@@H]3CC[C@@H]4C[C@@H](O)CC[C@]4(C)[C@H]3CC[C@]12C (stereo not given in full) | > 46 µM
88 | N/1C(N(\C=C\1)C)=S | > 46 µM
89 | Cc1cc(C(=O)O)c(C)n1-c1cccc(C(=O)O)c1.O=C1C[C@@H]2OCC=C3CN4CC[C@]56c7ccccc7N1[C@H]5[C@H]2[C@H]3C[C@H]46 | > 46 µM
90 | COc1ccc(CCN(C)CCCC(C#N)(c2cc(OC)c(OC)c(OC)c2)C(C)C)cc1OC.Cl (stereo not given) | > 46 µM
91 | Cc1ccccc1OCC(O)CNCCOc1ccc(C(N)=O)cc1 (stereo not given) | > 46 µM
92 | NCC1CCC(C(=O)O)CC1 (stereo not given) | > 46 µM
93 | CCCC(=O)Nc1c(I)cc(I)c(CC(CC)C(=O)[O-])c1I.[Na+] (stereo not given) | > 46 µM
94 | Nc1nnc(-c2cccc(Cl)c2Cl)c(N)n1 | > 46 µM
95 | Cc1cc(C(=O)NCCc2ccc(S(=O)(=O)NC(=O)NN3CCCCCC3)cc2)no1 | > 46 µM

Source: the supplement of paper PMC3493320
